Data from patent US6342484B1, “Method and compositions for promotion of wound treatment” (Board of Regents, The University of Texas Systems, priority 1993, dated 2002).

Experiments:
[1] = test system: wound cylinder of PTFE in Balb/C mice; experiment: Wound hydroxyproline content in PTFE wound cylinder, adenine/uracil/RNA diets (Example 2, FIG. 1); format: in vivo, mouse; conditions: for amount of OHP/cm PTFE over both the nucleotide free and the non-supplemented diets: diet at least 30 days before implantation, tenth post-operative day
Excerpt: Twenty-five Balb/C mice were divided into five test groups (n=5) and housed in groups in the animal care facilities. Each group received one of the following diets ad libertum: F—normal mouse chow, NF—nucleotide free diet, NFR—yeast RNA supplemented diet, NFA—adenine supplemented diet, and NFU—uracil supplemented diet. All groups received these diets for at least 30 days prior to wound cylinder implantation. All animals received water ad libitum.
Polytetrafluorethylene (PTFE, Impra Vascular Graft, 3 mm lumen, […]) wound cylinders (1.5 cm long) were placed subcutaneously in the dorsal midline of each animal under general anesthesia (Methoxyflurane, inhalation). All animals were continued on their test diets. On the tenth post-operative day, all animals were euthanized by cervical dislocation and the would cylinders were removed for analysis.
Wound cylinders were analyzed for hydroxyproline (OHP) content using the method of Woessner. Briefly, approximately 1 cm segments of the wound cylinders were hydrolyzed in 0.5 ml 6 N HCl for 3 hours at 130 C. Samples were cooled and 0.5 ml aliquots were neutralized with the appropriate volume of 1 N NaOH. Each sample was diluted to 5.25 ml with H2O in order to reduce the total NaCl concentration to below 0.4 M. Each sample was then reacted as described by Woessner.

[2] = test system: 4mm punch wound in Balb/c mice; experiment: Topical applications on 4 mm punch wounds, visual contraction of wounds (Example 5); format: in vivo, mouse; conditions: for Relative efficacy (wound contraction): topical agent on wound, uracil 100 μM, two weeks
Experimental: Balb/c mice were divided into three dietary groups (F=normal mouse chow; NF=nucleotide free mouse chow; and NFR=nucleotide free mouse chow supplemented with yeast RNA). Each group was fed before initiation of wounds. After 4 weeks of feeding, a 4mm punch wound was created on the dorsal surface of each mouse, using a 4mm biopsy punch. The wounds were coated with four different topical agents: 1) saline; 2) uracil {100 μM concentration); 3) saline+CCM; and 4) Uracil+CCM (CCM=crosslinked collagen mesh). CCM is ‘Collagen Permeable Membrane’ from Accurate Chemical & Scientific Corporation, catalog no. YIC 152299. Four mm size circles were soaked with appropriate nucleotide or saline solution (4mm punch wounds) and used to dress the wounds.
Twelve groups were formed from these combinations (n=3). Mice were continued on their respective diets. Wounds were observed visually and photographed at four different times during the experimental period of two weeks.
A record was made of the progressive contraction of the wounds and area among the various dietary and treatment groups.

Compound	fold increase of the amount of OHP in the wound [1]	significance of OHP increase over the non-supplemented diet [1]	significance of OHP increase over the nucleotide free diet [1]	amount of OHP/cm PTFE over both the nucleotide free and the non-supplemented diets [1]	results compared with uracil as topical agent ([2]; 100 μM as topical agent in place of uracil)	Relative efficacy (wound contraction) ([2]; Diet F (normal mouse chow))	Relative efficacy (wound contraction) ([2]; Diet NF (nucleotide free chow))	Relative efficacy (wound contraction) ([2]; Diet NFR (yeast RNA supplemented))
Nc1ncnc2nc[nH]c12 [Adenine, adenine]	close to two times	statistically significant	significant	increased	–	–	–	–
OC[C@H]1O[C@@H](n2cnc3c(O)ncnc32)[C@H](O)[C@@H]1O [inosine]	–	–	–	–	no significant differences	–	–	–
O=c1cc[nH]c(=O)[nH]1 [uracil]	–	–	–	increased	–	moderate	minimal	moderate
